Laboratory results reported in US8648068B2, “Heterocycloalkyl-containing thienopyrimidines for pharmaceutical compositions” (Boehringer Ingelheim International GmbH, priority 2010, dated 2014).
Where a name gives a salt, the structure may show the parent alone.

These compounds were tested against T1, human Mnk2a (Homo sapiens, UniProt Q9HBH9) (assay: Mnk2a in vitro kinase assay (indirect fluorescence polarization)). Details: GST-Mnk2a pre-activated with ERK2, 20 μM ATP, 30 μM substrate peptide; read-out: MNK2 IC50.
T1 construct: made in house; host or cells: E. coli BL21 (vector pGEX-4T1)
Type: biochemical
Procedure: Inhibitory potency of compounds against Mnk1, Mnk2a and other kinases was assessed with assays based on a format known to those skilled in the art as the indirect (competitive) fluorescence polarization. The assay detection system comprises a small fluorophore-labeled phospho-peptide (termed ligand) bound to a phospho-specific antibody. The product generated by the kinase reaction competes with the ligand for antibody binding. Based on the larger molecular volume of the bound ligand, which results in a lower rotation rate in solution, its emitted light has a higher degree of polarization than the one from the free ligand.
As a source of enzyme, human Mnk1 and human Mnk2a were expressed as GST fusion proteins in E. coli, purified to >80% homogeneity by glutathione affinity chromatography and activated in vitro with pre-activated ERK2. In brief, the open reading frames of human Mnk1 and Mnk2a were amplified from cDNA using the forward/reverse primer pairs
(utilized restriction sites underlined), respectively, and cloned into the BamHI and SalI sites of the vector pGEX-4T1 (Amersham, Sweden, cat. no. 27-4580-01). These constructs allow prokaryotic expression of Mnk1 or Mnk2a as fusion protein with a N-terminal glutathione S-transferase (GST) tag, referred to as GST-Mnk1 or GST-Mnk2a. The following expression and purification procedure was identical for GST-Mnk1 and GST-Mnk2a, referring in general to GST-Mnk, when not distinguishing between the two isoforms. Expression of GST-Mnk was in E. coli BL21 (Merck Biosciences, Germany, cat. no. 69449). Cells were grown in LB-Bouillon (Merck, Germany, cat. no. 1.10285) supplemented with 100 μg/ml ampicillin (Sigma, Germany, cat. no. A9518) at 37° C. When the culture had reached a density corresponding to an A600 of 0.8, an equal volume of ice cold LB/ampicillin was added, the culture transferred to 25° C. and induced for 4 h with 1 mM isopropyl thiogalactoside (IPTG, Roth, Germany, cat. no. 2316.4). Cells harvested by centrifugation were resuspended in 10 ml lysis buffer (50 mM tris(hydroxymethyl)aminomethane hydrochloride (Tris/HCl, Sigma, Germany, cat. no. T5941) pH 7.5, 300 mM sodium chloride (NaCl, Sigma, Germany, cat. no. S7653), 5% (w/v) glycerol (Sigma, Germany, cat. no. G5516), 3 mM DTT dithiotreitol (DTT, Sigma, Germany, cat. no. D9779)) per gram wet weight cell pellet. Lysates were prepared by disruption of cells with a sonifier and subsequent clearing by centrifugation at 38000 g for 45 min at 4° C.
The lysate was applied to a GSTPrep FF 16/10 column (Amersham, Sweden, cat. no. 17-5234-01) equilibrated with lysis buffer. Removal of unbound material was with 3 column volumes (CV) lysis buffer. Elution was with 2 CV of elution buffer (50 mM Tris/HCl pH 7.5, 300 mM NaCl, 5% (w/v) glycerol, 20 mM glutathione (Sigma, Germany, cat. no. G4251)). Peak fractions were pooled and the protein transferred into storage buffer (50 mM Tris/HCl pH 7.5, 200 mM NaCl, 0.1 mM ethylene glycol-bis(2-aminoethylether)-N,N,N′,N′-tetraacetic acid (EGTA, Aldrich, Germany, cat. no. 23, 453-2), 1 mM DTT, 10% (w/v) glycerol, 0.5 M sucrose (Sigma, Germany, cat. no. SO389) by gel filtration on a PD10 desalting column (Amersham, Sweden, cat. no. 17-0851-01). Aliquots were shock frozen in liquid nitrogen and stored at −80° C.
Activation of Mnk1 and Mnk2a was at a concentration of 2.5 μM of either purified GST-Mnk1 or GST-Mnk2a by incubation with 150 nM pre-activated NHis-ERK2 (see ERK2 assay for preparation) and 50 μM adenosine triphosphate (ATP, Sigma, cat. no. A2699) in a buffer comprising 20 mM N-(2-hydroxyethyl)piperazine-N′-(2-ethanesulfonic acid) (HEPES, Fluka, Germany, cat. no 54459)/potassium hydroxide (KOH, Roth, Germany, cat. no 6751.1) pH 7.4, 10 mM magnesium chloride (MgCl2, Sigma, Germany, cat. no. M2670), 0.25 mM DTT, 0.05% (w/v) polyoxyethylene 20 stearylether (Brij 78, Sigma, Germany, cat. no. P4019) (HMDB buffer) for 45 min at 30° C. […]

T1 sequence (Q9HBH9 whole entry): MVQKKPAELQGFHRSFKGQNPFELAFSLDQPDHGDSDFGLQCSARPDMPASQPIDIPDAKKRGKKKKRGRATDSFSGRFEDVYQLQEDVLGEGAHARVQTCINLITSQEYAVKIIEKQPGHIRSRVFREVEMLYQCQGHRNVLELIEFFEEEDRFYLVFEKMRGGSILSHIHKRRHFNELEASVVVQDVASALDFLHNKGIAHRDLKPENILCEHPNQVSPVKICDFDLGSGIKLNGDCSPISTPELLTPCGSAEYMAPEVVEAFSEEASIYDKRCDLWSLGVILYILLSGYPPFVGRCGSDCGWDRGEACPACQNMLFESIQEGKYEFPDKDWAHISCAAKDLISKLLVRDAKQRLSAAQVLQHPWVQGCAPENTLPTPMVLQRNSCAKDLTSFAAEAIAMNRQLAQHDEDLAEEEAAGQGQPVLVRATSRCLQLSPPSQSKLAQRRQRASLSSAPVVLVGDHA

IC50 [µM]	Structure (SMILES)
0.038	Cc1c(C(=O)NC2CCN(C)CC2)sc2ncnc(Nc3ccc(F)cc3O[C@@H]3CCCOC3)c12 [Example 259, 4-{4-Fluoro-2-[(R)-(tetrahydro-pyran-3-yl)oxy]-phenylamino}-5-methyl-thieno[2,3-d]pyrimidine-6-carboxylic acid (1-methyl-piperidin-4-yl)-amide]
0.041	Cc1c(C(=O)NCC(N)=O)sc2ncnc(Nc3ccc(F)cc3OC3CCOCC3)c12 [Example 128]
0.053	Cc1c(C(=O)NCc2cccc(F)c2)sc2ncnc(Nc3ccc(F)cc3OC3CCCNC3)c12 (stereo not shown) [Example 35]
0.01	Cc1c(C(N)=O)sc2ncnc(Nc3ccc(F)cc3O[C@H]3CCCN(S(C)(=O)=O)C3)c12 [Example 10, (S)-4-(4-fluoro-2-(1-(methylsulfonyl)piperidin-3-yloxy)phenylamino)-5-methylthieno[2,3-d]pyrimidine-6-carboxamide]
0.005	Cc1c(C(N)=O)sc2ncnc(Nc3ccc(F)cc3O[C@@H]3CCCN(CC(F)(F)F)C3)c12 [Example 73]
0.064	Cc1c(C(=O)NCc2cccc3ccccc23)sc2ncnc(Nc3ccc(F)cc3OC3CCCNC3)c12 (stereo not shown) [Example 58]
0.019	Cc1c(C(=O)NO)sc2ncnc(Nc3ccc(F)cc3OC3CCOCC3)c12 [Example 244]
0.02	Cc1c(C(=O)NCCCN2CCCC2)sc2ncnc(Nc3ccc(F)cc3O[C@@H]3CCCOC3)c12 [Example 258, 4-{4-Fluoro-2-[(R)-(tetrahydro-pyran-3-yl)oxy]-phenylamino}-5-methyl-thieno[2,3-d]pyrimidine-6-carboxylic acid (3-pyrrolidin-1-yl-propyl)-amide]
0.06	CCC(CC)CNC(=O)c1sc2ncnc(Nc3ccc(F)cc3OC3CCCNC3)c2c1C (stereo not shown) [Example 26]
0.076	Cc1c(C(=O)NCCN2CCNC2=O)sc2ncnc(Nc3ccc(F)cc3OC3CCOCC3)c12 [Example 214]
0.068	Cc1c(C(=O)NCCc2cccs2)sc2ncnc(Nc3ccc(F)cc3OC3CCCNC3)c12 (stereo not shown) [Example 37]
0.099	Cc1c(C(=O)NCC(C)(C)O)sc2ncnc(Nc3ccc(F)cc3OC3CCCNC3)c12 (stereo not shown) [Example 49]
0.035	Cc1c(C(=O)NCCCN2CCCC2=O)sc2ncnc(Nc3ccc(F)cc3OC3CCOCC3)c12 [Example 131]
0.038	Cc1c(C(=O)N[C@@H]2CC[C@H](N)C2)sc2ncnc(Nc3ccc(F)cc3OC3CCOCC3)c12 [Example 142]
0.014	CNC(=O)c1sc2ncnc(Nc3ccc(F)cc3OC3CCN(S(C)(=O)=O)C3)c2c1C (stereo not shown) [Example 90]
0.049	Cc1c(C(=O)N[C@H]2CCCC[C@@H]2O)sc2ncnc(Nc3ccc(F)cc3OC3CCOCC3)c12 [Example 243]
0.006	Cc1c(C(=O)NCCO)sc2ncnc(Nc3ccc(F)cc3O[C@@H]3CCCN(S(C)(=O)=O)C3)c12 [Example 86]
0.011	Cc1c(C(=O)NS(C)(=O)=O)sc2ncnc(Nc3ccc(F)cc3O[C@@H]3CCOC3)c12 [Example 101, N-(4-{4-Fluoro-2-[(R)-(tetrahydro-furan-3-yl)oxy]-phenylamino}-5-methyl-thieno[2,3-d]pyrimidine-6-carbonyl)-methanesulfonamide]
8.42	Cc1c(C(=O)N2CCCCC2CN2CCOCC2)sc2ncnc(Nc3ccc(F)cc3OC3CCOCC3)c12 (stereo not shown) [Example 252]
0.021	Cc1c(C(=O)NCc2cccnc2)sc2ncnc(Nc3ccc(F)cc3OC3CCOCC3)c12 [Example 213]

The remaining lines, values behind:

Structure (SMILES)	IC50 [µM]
Cc1c(C(=O)NCCOC(F)(F)F)sc2ncnc(Nc3ccc(F)cc3OC3CCCNC3)c12 (stereo not shown) [Example 38]	0.1
CC(=O)N1CCC[C@@H](Oc2cc(F)ccc2Nc2ncnc3sc(C(N)=O)c(C)c23)C1 [Example 83]	0.12
CNC(=O)c1sc2ncnc(Nc3ccc(F)cc3O[C@H]3CCCNC3)c2c1C [Example 11, 4-[4-Fluoro-2-((S)-piperidin-3-yloxy)-phenylamino]-5-methyl-thieno[2,3-d]pyrimidine-6-carboxylic acid methylamide]	0.039
Cc1c(C(N)=O)sc2ncnc(Nc3ccc(F)cc3O[C@@H]3CCCN(C)C3)c12 [Example 76, 4-[4-Fluoro-2-((R)-1-methyl-piperidin-3-yloxy)-phenylamino]-5-methyl-thieno[2,3-d]pyrimidine-6-carboxylic acid amide]	0.043
Cc1c(C(=O)NCCN2CCCC2=O)sc2ncnc(Nc3ccc(F)cc3OC3CCOCC3)c12 [Example 176]	0.105
Cc1c(C(=O)NCCCN(C)CCN(C)C)sc2ncnc(Nc3ccc(F)cc3OC3CCOCC3)c12 [Example 126]	0.026
Cc1c(C(=O)NO)sc2ncnc(Nc3ccc(F)cc3OC3CCN(S(C)(=O)=O)C3)c12 (stereo not shown) [Example 93]	0.019
Cc1c(C(=O)NCCCN2CCCC2)sc2ncnc(Nc3ccc(F)cc3O[C@H]3CCOC3)c12 [Example 111]	0.022
Cc1c(C(=O)NCC2CN(C)CCO2)sc2ncnc(Nc3ccc(F)cc3OC3CCOCC3)c12 (stereo not shown) [Example 116, 4-[4-Fluoro-2-(tetrahydro-pyran-4-yloxy)-phenylamino]-5-methyl-thieno[2,3-d]pyrimidine-6-carboxylic acid (4-methyl-morpholin-2-ylmethyl)-amide trifluoracetate]	0.022
COCCNC(=O)c1sc2ncnc(Nc3ccc(F)cc3O[C@H]3CCCNC3)c2c1C [Example 13]	0.059
Cc1c(C(=O)NCCO)sc2ncnc(Nc3ccc(F)cc3O[C@H]3CCCNC3)c12 [Example 15]	0.031
Cc1c(C(=O)NCC#N)sc2ncnc(Nc3cccnc3O[C@@H]3CCCOC3)c12 [Example 266]	0.025
Cc1c(C(=O)Nc2ccn(C)c(=O)n2)sc2ncnc(Nc3ccc(F)cc3OC3CCOCC3)c12 [Example 247]	0.044
Cc1c(C(=O)NC(C)(C)CO)sc2ncnc(Nc3ccc(F)cc3OC3CCOCC3)c12 [Example 226]	0.055
Cc1c(C(=O)NCC(C)(C)C)sc2ncnc(Nc3ccc(F)cc3OC3CCCNC3)c12 (stereo not shown) [Example 21]	0.076
Cc1c(C(=O)NC2CC2)sc2ncnc(Nc3ccc(F)cc3O[C@H]3CCOC3)c12 [Example 112]	0.021
Cc1c(C(=O)NC2CCN(C)C[C@@H]2O)sc2ncnc(Nc3ccc(F)cc3OC3CCOCC3)c12 (stereo partly drawn) [Example 257, 4-[4-Fluoro-2-(tetrahydro-pyran-4-yloxy)-phenylamino]-5-methyl-thieno[2,3-d]pyrimidine-6-carboxylic acid ((S)-3-hydroxy-1-methyl-piperidin-4-yl)-amide-hydrochloride]	0.04
Cc1c(C(=O)NCCCC2CCOC2)sc2ncnc(Nc3ccc(F)cc3OC3CCCNC3)c12 (stereo not shown) [Example 39]	0.058
CCN(CC)CC(O)CNC(=O)c1sc2ncnc(Nc3ccc(F)cc3OC3CCOCC3)c2c1C (stereo not shown) [Example 248]	0.041
Cc1c(C(=O)NCc2ccncc2)sc2ncnc(Nc3ccc(F)cc3OC3CCOCC3)c12 [Example 221]	0.038
CCCOCCNC(=O)c1sc2ncnc(Nc3ccc(F)cc3OC3CCOCC3)c2c1C [Example 161]	0.056
Cc1c(C(=O)NC2CN(C)C2)sc2ncnc(Nc3ccc(F)cc3OC3CCOCC3)c12 [Example 200]	0.069
Cc1c(C(=O)NC2CC2)sc2ncnc(Nc3ccc(F)cc3O[C@@H]3CCOC3)c12 [Example 107]	0.026
